Reference: patent publication US12630534B2 (TAKEDA PHARMACEUTICAL COMPANY LIMITED, priority 2020, dated 2026)

Target: T1, human GPR139 (Homo sapiens, UniProt Q6DWJ6)
T1 construct: expressed in transfected cells; host or cells: CHO-TREx (Life Technologies) cells, expression induced with doxycycline
T1 sequence (Q6DWJ6 1-353): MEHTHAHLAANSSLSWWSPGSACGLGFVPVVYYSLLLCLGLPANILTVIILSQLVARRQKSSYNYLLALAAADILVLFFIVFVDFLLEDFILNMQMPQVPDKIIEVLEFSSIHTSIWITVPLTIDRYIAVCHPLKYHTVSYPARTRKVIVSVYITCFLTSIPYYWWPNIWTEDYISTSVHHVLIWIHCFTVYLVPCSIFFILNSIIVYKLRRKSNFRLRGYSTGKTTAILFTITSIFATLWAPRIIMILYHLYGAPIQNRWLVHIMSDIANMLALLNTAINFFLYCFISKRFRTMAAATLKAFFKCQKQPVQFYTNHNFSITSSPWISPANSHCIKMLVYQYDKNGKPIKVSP
Assay: Inhibition rate of the amount of IP1 in GPR139-expressed CHO cells (inverse agonist assay, Test Example 2)
Type: cell-based
Settings: relative value, inhibition rate of Example Compound 2 in Test Example 1 defined as 100%; for inhibition at 30 µM: CHO
Method in brief: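 IP1 accumulation read by IP-One HTRF after 40 min compound exposure at 37° C in stimulation buffer, 2000 cells/well, GPR139 expression induced the day before with doxycycline. Results given as relative inhibition rate, normalised to a reference compound set at […].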

Compound | inhibition at 30 µM [%] | Inhibition Rate at 30 μM (30 µM) [%]
CCn1cc(Cn2cc(C)n(-c3nc(N4CCO[C@H](C)C4)cc(C(F)(F)F)n3)c2=O)cn1 [Example 124, 1-[(1-ethyl-1H-pyrazol-4-yl)methyl]-4-methyl-3-{4-[(2R)-2-methylmorpholin-4-yl]-6-(trifluoromethyl)pyrimidin-2-yl}-1,3-dihydro-2H-imidazol-2-one] | 103 | 
CCn1cc(Cn2cc(C)n(-c3cc(C(F)(F)F)cc(N4CCOC(C)(C)C4)n3)c2=O)cn1 [Example 125, 3-[6-(2,2-dimethylmorpholin-4-yl)-4-(trifluoromethyl)pyridin-2-yl]-1-[(1-ethyl-1H-pyrazol-4-yl)methyl]-4-methyl-1,3-dihydro-2H-imidazol-2-one] | 101 | 
Cc1cn(Cc2cnn(C(C)C)c2)c(=O)n1-c1cc(C2CC2)cc(N2CCO[C@H](C)C2)n1 [Example 126, 3-{4-cyclopropyl-6-[(2R)-2-methylmorpholin-4-yl]pyridin-2-yl}-4-methyl-1-{[1-(propan-2-yl)-1H-pyrazol-4-yl]methyl}-1,3-dihydro-2H-imidazol-2-one] | 100 | 
CCn1cc(Cn2c(C(F)(F)F)cn(-c3nc(N4CCO[C@H](C)C4)cc(C(F)(F)F)c3F)c2=O)cn1 [Example 127, 3-[(1-Ethyl-1H-pyrazole-4-yl)methyl]-1-{3 fluoro-6-[(2R)-2-methylmorpholine-4-yl]-4-(trifluoromethyl)pyridine-2-yl}-4-(trifluoromethyl)-1,3-dihydro-2H-imidazole-2-one] | 99 | 
Cc1cn(Cc2cnn(C(C)C)c2)c(=O)n1-c1cc(C(F)(F)F)cc(N(C)C2CCOCC2)n1 [Example 128, 4-methyl-3-{6-[methyl(oxan-4-yl)amino]-4-(trifluoromethyl)pyridin-2-yl}-1-{[1-(propan-2-yl)-1H-pyrazol-4-yl]methyl}-1,3-dihydro-2H-imidazol-2-one] | 101 | 
Cc1cn(-c2cc(C(F)(F)F)cc(N3CCO[C@H](C)C3)n2)c(=O)n1Cc1cnn(C(C)C)c1 [Example 129, 4-methyl-1-{6-[(2R)-2-methylmorpholin-4-yl]-4-(trifluoromethyl)pyridin-2-yl}-3-{[1-(propan-2-yl)-1H-pyrazol-4-yl]methyl}-1,3-dihydro-2H-imidazol-2-one] | 100 | 
Cc1cn(Cc2cnn(C(C)C)c2)c(=O)n1-c1cc(C2CC2)cc(N2CCOC(C)(C)C2)n1 [Example 130, 3-[4-cyclopropyl-6-(2,2-dimethylmorpholin-4-yl)pyridin-2-yl]-4-methyl-1-{[1-(propan-2-yl)-1H-pyrazol-4-yl]methyl}-1,3-dihydro-2H-imidazol-2-one] | 100 | 
CCn1cc(Cn2ccn(-c3cc(-c4ccc(F)cc4)cc(C4CC4(F)F)c3F)c2=O)cn1 (stereo not drawn) [Example 131] | 96 | 
CC(C)n1cc(Cn2ccn(-c3nc(N4CCOC(C)(C)C4)cc(C(F)(F)F)c3F)c2=O)cn1 [Example 132, 1-[6-(2,2-dimethylmorpholin-4-yl)-3-fluoro-4-(trifluoromethyl)pyridin-2-yl]-3-{[1-(propan-2-yl)-1H-pyrazol-4-yl]methyl}-1,3-dihydro-2H-imidazol-2-one] | 99 | 
CC(C)n1cc(Cn2ccn(-c3nc(NCC4(F)CCC4)cc(C(F)(F)F)c3F)c2=O)cn1 [Example 133, 1-[3-fluoro-6-{[(1-fluorocyclobutyl)methyl]amino}-4-(trifluoromethyl)pyridin-2-yl]-3-{[1-(propan-2-yl)-1H-pyrazol-4-yl]methyl}-1,3-dihydro-2H-imidazol-2-one] | 99 | 
CCn1cc(Cn2cc(C)n(-c3nc(N4CCOC(C)(C)C4)cc(C(F)(F)F)n3)c2=O)cn1 [Example 134, 3-[4-(2,2-Dimethylmorpholine-4-yl)-6-(trifluoromethyl)pyrimidine-2-yl]-1-[(1-ethyl-H-pyrazole-4-yl)methyl]-4-methyl-1,3-dihydro-2H-imidazole-2-one] | 98 | 
Cc1cn(Cc2cnn(C(C)C)c2)c(=O)n1-c1nc(N2CCOC(C)(C)C2)cc(C(F)(F)F)n1 [Example 135, 3-[4-(2,2-dimethylmorpholin-4-yl)-6-(trifluoromethyl)pyrimidin-2-yl]-4-methyl-1-{[1-(propan-2-yl)-1H-pyrazol-4-yl]methyl}-1,3-dihydro-2H-imidazol-2-one] | 102 | 
CCc1nn(-c2cc(N3CCOC(C)(C)C3)cc(C(F)(F)F)c2F)c(=O)n1Cc1cnn(CC)c1 [Example 136, 2-[5-(2,2-dimethylmorpholin-4-yl)-2-fluoro-3-(trifluoromethyl)phenyl]-5-ethyl-4-[(1-ethyl-1H-pyrazol-4-yl)methyl]-2,4-dihydro-3H-1,2,4-triazol-3-one] | 100 | 
CCn1cc(Cn2cc(C)n(-c3cc(Br)cc(N4CCOC(C)(C)C4)c3)c2=O)cn1 [Example 137, 3-[3-bromo-5-(2,2-dimethylmorpholin-4-yl)phenyl]-1-[(1-ethyl-1H-pyrazol-4-y)methyl]-4-methyl-1,3-dihydro-2H-imidazol-2-one] | 98 | 
CCc1nn(-c2cc(N3CCC(F)(F)CC3)cc(C(F)(F)F)c2F)c(=O)n1Cc1cnn(CC)c1 [Example 138, 2-[5-(4,4-difluoropiperidin-1-yl)-2-fluoro-3-(trifluoromethyl)phenyl]-5-ethyl-4-[(1-ethyl-1H-pyrazol-4-yl)methyl]-2,4-dihydro-3H-1,2,4-triazol-3-one] | 100 | 
CCn1cc(Cn2c(C)cn(-c3cc(N4CCO[C@H](C)C4)cc(Cl)c3F)c2=O)cn1 [Example 139, 1-{3-chloro-2-fluoro-5-[(2R)-2-methylmorpholin-4-yl]phenyl}-3-[(1-ethyl-1H-pyrazol-4-yl)methyl]-4-methyl-1,3-dihydro-2H-imidazol-2-one] | 98 | 
CCn1cc(Cn2c(C)cn(-c3cc(N4CCO[C@H](C)C4)cc(C4CC4)c3F)c2=O)cn1 [Example 140, 1-{3-cyclopropyl-2-fluoro-5-[(2R)-2-methylmorpholin-4-yl]phenyl}-3-[(1-ethyl-1H-pyrazol-4-yl)methyl]-4-methyl-1,3-dihydro-2H-imidazol-2-one] | 98 | 
CCn1cc(Cn2c(C)nn(-c3cc(C(F)(F)F)cc(N4CCC(F)(F)CC4)n3)c2=O)cn1 [Example 141] | 101 | 
Cc1nn(-c2cc(C(F)(F)F)cc(N3CCC(F)(F)CC3)n2)c(=O)n1Cc1cnn(C(C)C)c1 [Example 142, 2-[6-(4,4-difluoropiperidin-1-yl)-4-(trifluoromethyl)pyridin-2-yl]-5-methyl-4-{[1-(propan-2-yl)-1H-pyrazol-4-yl]methyl}-2,4-dihydro-3H-1,2,4-triazol-3-one] | 100 | 
CCn1cc(Cn2c(C(F)(F)F)cn(-c3cc(N4CCO[C@H](C)C4)cc(C4CC4(F)F)c3F)c2=O)cn1 (stereo partly drawn) [Example 143, 1-{3-(2,2-difluorocyclopropyl)-2-fluoro-5-[(2R)-2-methylmorpholin-4-yl]phenyl}-3-[(1-ethyl-1H-pyrazol-4-yl)methyl]-4-(trifluoromethyl)-1,3-dihydro-2H-imidazol-2-one] | 101 | 
CCn1cc(Cn2ccn(-c3cc(-c4ccc(F)cc4)cc(C4CC4(F)F)c3F)c2=O)cn1 (stereo not drawn) [Example 144, 1-[5-(2,2-difluorocyclopropyl)-4,4′-difluoro[1,1′-biphenyl]-3-yl]-3-[(1-ethyl-1H-pyrazol-4-yl)methyl]-1,3-dihydro-2H-imidazol-2-one] |  | 101
